The source of these data is patent US10538555B2, “Macrocyclic inhibitors of the PD-1/PD-L1 and CD80(B7-1)/PD-L1 protein/protein interactions” (BRISTOL-MYERS SQUIBB COMPANY, priority 2014, dated 2020).

Values joined by “and” are separate entries in the source; they are usually repeats but may differ in a detail not shown here. Equal entries are not always repeated. Where two headings read alike, the source gives them in different places. Where a SMILES comes first, the peptide text is derived from it. Bridges are numbered along the chain shown (N, C = ends). [ ]: non-standard residue; d: D form. ξ: configuration not given here. Trp(1-CH2COOH) = N[C@@H](Cc1cn(CC(=O)O)c2ccccc12)C(=O)O; Hyp = O=C(O)[C@@H]1C[C@@H](O)CN1; Thr(3ξ) = CC(O)[C@H](N)C(=O)O; NMeNle = CCCC[C@H](NC)C(=O)O; NMeA = CN[C@@H](C)C(=O)O; Dab = NCC[C@H](N)C(=O)O; Dap = NC[C@H](N)C(=O)O

The assay deals with T1, Human PD-L1/PD-1 (Homo sapiens, UniProt Q9NZQ7).
T1 construct: TVMV protease cleavage site (C); made in house; host or cells: HEK293T cells
The experiment in a line: HTRF Human PD-L1/PD-1 binding assay (PD-1-Ig/PD-L1-His). The settings on record: PD-L1-His 10 nM, PD-1-Ig 20 nM. In outline: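 Truncated Fc-fused human PD-1 (aa 25-167) at 20 nM and His-tagged PD-L1 (aa 18-239) at 10 nM final are used, with peptides preincubated 15 min with PD-L1. Detection uses europium-cryptate anti-Ig and APC anti-His antibodies; 665/620 nm ratio.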
A general note: Time-resolved FRET reads energy transfer from a long-lived donor to a nearby acceptor.

Where [1] appears, read: class symbol, read-out: HTRF Human PD-L1/PD-1 Binding Assay IC50 Range.

T1 sequence (Q9NZQ7 with tags, fused parts or gaps): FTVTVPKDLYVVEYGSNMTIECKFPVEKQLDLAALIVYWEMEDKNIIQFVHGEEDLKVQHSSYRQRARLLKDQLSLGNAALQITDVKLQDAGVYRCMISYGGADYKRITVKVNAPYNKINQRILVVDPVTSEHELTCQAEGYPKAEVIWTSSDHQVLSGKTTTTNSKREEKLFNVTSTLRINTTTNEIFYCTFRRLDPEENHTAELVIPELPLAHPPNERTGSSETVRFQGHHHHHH

As for `CCCC[C@H]1C(=O)N(C)[C@@H](CCCC)C(=O)N[C@@H](CCC(=O)O)C(=O)N[C@H](C(=O)NCC(N)=O)CSCC(=O)N[C@@H](Cc2ccc(OC)cc2)C(=O)N(C)[C@@H](C)C(=O)N[C@@H](CCN)C(=O)N2CCC[C@H]2C(=O)N[C@@H](Cc2cnc[nH]2)C(=O)N[C@@H](CCC(=O)O)C(=O)N2C[C@H](O)C[C@H]2C(=O)N[C@@H](Cc2c[nH]c3ccccc23)C(=O)N[C@@H](CC(=O)O)C(=O)N[C@@H](Cc2c[nH]c3ccccc23)C(=O)N1C` [Example 7132] ({CH2CO}-Y(Me)[NMeA][Dab]PHE[Hyp]WDW[NMeNle][NMeNle]ECG-NH2; thioether N-14), the IC50 under setting [1] is 100 to 990 nM and 10 to 99.9 nM.

Consider `CCCC[C@H]1C(=O)N(C)[C@@H](CCCC)C(=O)N[C@@H](CCC(=O)O)C(=O)N[C@H](C(=O)NCC(N)=O)CSCC(=O)N[C@@H](Cc2ccc(OC)cc2)C(=O)N(C)[C@@H](C)C(=O)N[C@@H](CC(=O)O)C(=O)N2CCC[C@H]2C(=O)N[C@@H](CN)C(=O)N[C@@H](CCC(=O)O)C(=O)N2C[C@H](O)C[C@H]2C(=O)N[C@@H](Cc2c[nH]c3ccccc23)C(=O)N[C@@H](CC(=O)O)C(=O)N[C@@H](Cc2c[nH]c3ccccc23)C(=O)N1C` [Example 7133] ({CH2CO}-Y(Me)[NMeA]DP[Dap]E[Hyp]WDW[NMeNle][NMeNle]ECG-NH2; thioether N-14), for which the IC50 under setting [1] lay in the range of 10 to 99.9 nM.

Take `CCCC[C@H]1C(=O)N(C)[C@@H](CCCC)C(=O)N[C@@H](CC(C)C)C(=O)N[C@H](C(=O)NCC(N)=O)CSCC(=O)N[C@@H](Cc2ccc(OC)cc2)C(=O)N(C)[C@@H](C)C(=O)N[C@@H](CC(N)=O)C(=O)N2CCC[C@H]2C(=O)N[C@@H](Cc2c[nH]cn2)C(=O)N[C@@H](CCC(N)=O)C(=O)N2C[C@H](O)C[C@H]2C(=O)N[C@@H](Cc2c[nH]c3ccccc23)C(=O)N[C@@H](CO)C(=O)N[C@@H](Cc2c[nH]c3ccccc23)C(=O)N1C` [Example 7135] ({CH2CO}-Y(Me)[NMeA]NPHQ[Hyp]WSW[NMeNle][NMeNle]LCG-NH2; thioether N-14): the IC50 (read-out: HTRF Human PD-L1/PD-1 Binding Assay IC50) was determined as 5.6 nM.

For the compound `CCCC[C@H]1C(=O)N(C)[C@@H](CCCC)C(=O)N[C@@H](CC(C)C)C(=O)N[C@H](C(=O)NCC(N)=O)CSCC(=O)N[C@@H](Cc2ccc(OC)cc2)C(=O)N(C)[C@@H](C)C(=O)N[C@@H](CC(N)=O)C(=O)N2CCC[C@H]2C(=O)N[C@@H](CO)C(=O)N[C@@H](CCC(N)=O)C(=O)N2C[C@H](O)C[C@H]2C(=O)N[C@@H](Cc2c[nH]c3ccccc23)C(=O)N[C@@H](CO)C(=O)N[C@@H](Cc2c[nH]c3ccccc23)C(=O)N1C` [Example 7136] ({CH2CO}-Y(Me)[NMeA]NPSQ[Hyp]WSW[NMeNle][NMeNle]LCG-NH2; thioether N-14), under setting [1], the IC50 was 1 to 9.9 nM.

On to `CCCC[C@H]1C(=O)N(C)[C@@H](CCCC)C(=O)N[C@@H](CO)C(=O)N[C@H](C(=O)NCC(N)=O)CSCC(=O)N[C@@H](Cc2ccc(OC)cc2)C(=O)N(C)[C@@H](C)C(=O)N[C@@H](CC(N)=O)C(=O)N2CCC[C@H]2C(=O)N[C@@H](Cc2c[nH]cn2)C(=O)N[C@@H](CCC(N)=O)C(=O)N2C[C@H](O)C[C@H]2C(=O)N[C@@H](Cc2c[nH]c3ccccc23)C(=O)N[C@@H](CO)C(=O)N[C@@H](Cc2c[nH]c3ccccc23)C(=O)N1C` [Example 7137] ({CH2CO}-Y(Me)[NMeA]NPHQ[Hyp]WSW[NMeNle][NMeNle]SCG-NH2; thioether N-14), for which the IC50 under setting [1] is 1 to 9.9 nM.

As for `CCCC[C@H]1C(=O)N(C)[C@@H](CCCC)C(=O)N[C@@H](CO)C(=O)N[C@H](C(=O)NCC(N)=O)CSCC(=O)N[C@@H](Cc2ccc(OC)cc2)C(=O)N(C)[C@@H](C)C(=O)N[C@@H](CC(N)=O)C(=O)N2CCC[C@H]2C(=O)N[C@@H](CO)C(=O)N[C@@H](CCC(N)=O)C(=O)N2C[C@H](O)C[C@H]2C(=O)N[C@@H](Cc2c[nH]c3ccccc23)C(=O)N[C@@H](CO)C(=O)N[C@@H](Cc2c[nH]c3ccccc23)C(=O)N1C` [Example 7138] ({CH2CO}-Y(Me)[NMeA]NPSQ[Hyp]WSW[NMeNle][NMeNle]SCG-NH2; thioether N-14), the IC50 under setting [1] was 1 to 9.9 nM.

For `CCCC[C@H]1C(=O)N(C)[C@@H](CCCC)C(=O)N[C@@H](C(C)O)C(=O)N[C@H](C(=O)NCC(N)=O)CSCC(=O)N[C@@H](Cc2ccc(OC)cc2)C(=O)N(C)[C@@H](C)C(=O)N[C@@H](CC(N)=O)C(=O)N2CCC[C@H]2C(=O)N[C@@H](Cc2c[nH]cn2)C(=O)N[C@@H](CCC(N)=O)C(=O)N2C[C@H](O)C[C@H]2C(=O)N[C@@H](Cc2c[nH]c3ccccc23)C(=O)N[C@@H](CO)C(=O)N[C@@H](Cc2c[nH]c3ccccc23)C(=O)N1C` (some centres unmarked) [Example 7139] ({CH2CO}-Y(Me)[NMeA]NPHQ[Hyp]WSW[NMeNle][NMeNle][Thr(3ξ)]CG-NH2; thioether N-14), the IC50 under setting [1] lay in the range of 1 to 9.9 nM.

Consider `CCCC[C@H]1C(=O)N(C)[C@@H](CCCC)C(=O)N[C@@H](CCC(=O)O)C(=O)N[C@H](C(=O)NCC(N)=O)CSCC(=O)N[C@@H](Cc2ccc(OC)cc2)C(=O)N(C)[C@@H](C)C(=O)N[C@@H](CCN)C(=O)N2CCC[C@H]2C(=O)N[C@@H](CN)C(=O)N[C@@H](CCC(=O)O)C(=O)N2C[C@H](O)C[C@H]2C(=O)N[C@@H](Cc2c[nH]c3ccccc23)C(=O)N[C@@H](CCN)C(=O)N[C@@H](Cc2cn(CC(=O)O)c3ccccc23)C(=O)N1C` [Example 7140] ({CH2CO}-Y(Me)[NMeA][Dab]P[Dap]E[Hyp]W[Dab][Trp(1-CH2COOH)][NMeNle][NMeNle]ECG-NH2; thioether N-14), for which the IC50 under setting [1] lay within 1 to 9.9 nM.

Take `CCCC[C@H]1C(=O)N(C)[C@@H](CCCC)C(=O)N[C@@H](CC(C)C)C(=O)N[C@H](C(=O)NCC(N)=O)CSCC(=O)N[C@@H](Cc2ccc(OC)cc2)C(=O)N(C)[C@@H](C)C(=O)N[C@@H](CC(N)=O)C(=O)N2CCC[C@H]2C(=O)N[C@@H](Cc2c[nH]cn2)C(=O)N[C@@H](CCC(N)=O)C(=O)N2C[C@H](O)C[C@H]2C(=O)N[C@@H](Cc2c[nH]c3ccccc23)C(=O)N[C@@H](CO)C(=O)N[C@@H](Cc2cn(CC(=O)O)c3ccccc23)C(=O)N1C` [Example 7141] ({CH2CO}-Y(Me)[NMeA]NPHQ[Hyp]WS[Trp(1-CH2COOH)][NMeNle][NMeNle]LCG-NH2; thioether N-14): the IC50 under setting [1] was 1 to 9.9 nM.

In the case of `CCCC[C@H]1C(=O)N(C)[C@@H](CCCC)C(=O)N[C@@H](CC(C)C)C(=O)N[C@H](C(=O)NCC(N)=O)CSCC(=O)N[C@@H](Cc2ccc(OC)cc2)C(=O)N(C)[C@@H](C)C(=O)N[C@@H](CC(N)=O)C(=O)N2CCC[C@H]2C(=O)N[C@@H](CO)C(=O)N[C@@H](CCC(N)=O)C(=O)N2C[C@H](O)C[C@H]2C(=O)N[C@@H](Cc2c[nH]c3ccccc23)C(=O)N[C@@H](CO)C(=O)N[C@@H](Cc2cn(CC(=O)O)c3ccccc23)C(=O)N1C` [Example 7142] ({CH2CO}-Y(Me)[NMeA]NPSQ[Hyp]WS[Trp(1-CH2COOH)][NMeNle][NMeNle]LCG-NH2; thioether N-14), under setting [1], the IC50 lay within 1 to 9.9 nM.

In the case of `CCCC[C@H]1C(=O)N(C)[C@@H](CCCC)C(=O)N[C@@H](CO)C(=O)N[C@H](C(=O)NCC(N)=O)CSCC(=O)N[C@@H](Cc2ccc(OC)cc2)C(=O)N(C)[C@@H](C)C(=O)N[C@@H](CC(N)=O)C(=O)N2CCC[C@H]2C(=O)N[C@@H](Cc2c[nH]cn2)C(=O)N[C@@H](CCC(N)=O)C(=O)N2C[C@H](O)C[C@H]2C(=O)N[C@@H](Cc2c[nH]c3ccccc23)C(=O)N[C@@H](CO)C(=O)N[C@@H](Cc2cn(CC(=O)O)c3ccccc23)C(=O)N1C` [Example 7143] ({CH2CO}-Y(Me)[NMeA]NPHQ[Hyp]WS[Trp(1-CH2COOH)][NMeNle][NMeNle]SCG-NH2; thioether N-14), under setting [1], the IC50 is 1 to 9.9 nM.

With `CCCC[C@H]1C(=O)N(C)[C@@H](CCCC)C(=O)N[C@@H](CO)C(=O)N[C@H](C(=O)NCC(N)=O)CSCC(=O)N[C@@H](Cc2ccc(OC)cc2)C(=O)N(C)[C@@H](C)C(=O)N[C@@H](CC(N)=O)C(=O)N2CCC[C@H]2C(=O)N[C@@H](CO)C(=O)N[C@@H](CCC(N)=O)C(=O)N2C[C@H](O)C[C@H]2C(=O)N[C@@H](Cc2c[nH]c3ccccc23)C(=O)N[C@@H](CO)C(=O)N[C@@H](Cc2cn(CC(=O)O)c3ccccc23)C(=O)N1C` [Example 7144] ({CH2CO}-Y(Me)[NMeA]NPSQ[Hyp]WS[Trp(1-CH2COOH)][NMeNle][NMeNle]SCG-NH2; thioether N-14), the IC50 under setting [1] lay in the range of 1 to 9.9 nM.

As for `CCCC[C@H]1C(=O)N(C)[C@@H](CCCC)C(=O)N[C@@H](C(C)O)C(=O)N[C@H](C(=O)NCC(N)=O)CSCC(=O)N[C@@H](Cc2ccc(OC)cc2)C(=O)N(C)[C@@H](C)C(=O)N[C@@H](CC(N)=O)C(=O)N2CCC[C@H]2C(=O)N[C@@H](Cc2c[nH]cn2)C(=O)N[C@@H](CCC(N)=O)C(=O)N2C[C@H](O)C[C@H]2C(=O)N[C@@H](Cc2c[nH]c3ccccc23)C(=O)N[C@@H](CO)C(=O)N[C@@H](Cc2cn(CC(=O)O)c3ccccc23)C(=O)N1C` (some centres unmarked) [Example 7145] ({CH2CO}-Y(Me)[NMeA]NPHQ[Hyp]WS[Trp(1-CH2COOH)][NMeNle][NMeNle][Thr(3ξ)]CG-NH2; thioether N-14), under setting [1], the IC50 was 1 to 9.9 nM.

For the compound `CCCC[C@H]1C(=O)N(C)[C@@H](CCCC)C(=O)N[C@@H](CCC(=O)O)C(=O)N[C@H](C(=O)NCC(N)=O)CSCC(=O)N[C@@H](Cc2ccc(OC)cc2)C(=O)N(C)[C@@H](C)C(=O)N[C@@H](CC(N)=O)C(=O)N2CCC[C@H]2C(=O)N[C@@H](CN)C(=O)N[C@@H](CCCCN)C(=O)N2C[C@H](O)C[C@H]2C(=O)N[C@@H](Cc2c[nH]c3ccccc23)C(=O)N[C@@H](CCN)C(=O)N[C@@H](Cc2cn(CC(=O)O)c3ccccc23)C(=O)N1C` [Example 7146] ({CH2CO}-Y(Me)[NMeA]NP[Dap]K[Hyp]W[Dab][Trp(1-CH2COOH)][NMeNle][NMeNle]ECG-NH2; thioether N-14), under setting [1], the IC50 was in the range of 10 to 99.9 nM.
